Experimental data published in patent publication US20230203023A1, “SALT AND CRYSTAL FORMS OF GLP-1R AGONISTS AND USES THEREOF” (QILU REGOR THERAPEUTICS INC., priority 2020, published 2023).
Structures can show the parent of a compound that is named as a salt.

Assays:
Assay type in all cases: physicochemical
[1] = Kinetic solubility test in water and bio-relevant media (SGF, FaSSIF, FeSSIF); details: for S: solubility: 37° C.; for Purity (%), area percentage of API: for reference only (suspensions); for FC: form change: residual solids by XRPD; for pH: supernatant
Protocol: (§1) Weigh 100 mg of sodium chloride and 50 mg of Triton X-100 into a 50-mL volumetric flask. Add appropriate volume of purified water and sonicate until all solids are completely dissolved. Add about 68 μL of 12 M HCl and sufficient purified water closely to the target volume and adjust to pH 1.8. Dilute to volume with purified water, mix well and check the pH with a pH meter.
as §1, with “170” for “100”, “phosphate monobasic, 21” for “chloride and 50”, “sodium hydroxide and 310 mg of sodium chloride, 110 mg of SIF powder” for “Triton X-100”, “Add” for “Add about 68 μL of 12 M HCl and”, “6.5.” for “1.8.”
Weigh 0.41 mL of glacial acetic acid, 202 mg of sodium hydroxide and 594 mg of sodium chloride, 560 mg of SIF powder into a 50-mL volumetric flask. Add appropriate volume of purified water to dissolve the solids. Then add sufficient purified water closely to the target volume and adjust to pH 5.0. Dilute to volume with purified water, mix well and check the pH with a pH meter.
Kinetic solubility was evaluated in water and three bio-relevant media (SGF, FaSSIF and FeSSIF) for 1/4/24 hours. 3-4 mg of solids were suspended in 3 mL each medium (solid loading: 1 mg/mL, calculated using freeform) to get a suspension, followed by rolling (25 rpm) at 37° C. for 1/4/24 hours. At each time point, ˜1.0 mL of suspension was sampled out for centrifugation (12000 rpm, 2 min) and filtration through 0.45 μm PTFE membrane to obtain supernatant for HPLC and pH tests, the residual solids were analyzed by XRPD.
Kinetic solubility was evaluated for 1:1 Compound II Citrate Salt (Form A), 1:1 Compound II Tris Salt (Form B), and freeform of Compound II in water and three bio-relevant media (SGF, FaSSIF and FeSSIF) for 1/4/24 hours. 3-4 mg of solids were suspended in 3 mL each medium (solid loading:
1 mg/mL, calculated using freeform) to get a suspension, followed by rolling (25 rpm) at 37° C. for 1/4/24 hours. At each time point, ˜1.0 mL of suspension was sampled out for centrifugation (12000 rpm, 2 min) and filtration through 0.45 μm PTFE membrane to obtain supernatant for HPLC and pH tests, the residual solids were analyzed by XRPD. […] The purity results were for reference only since the samples were all suspensions.

[2] = Solid stability evaluation (I/II), XRPD and HPLC
Protocol: To evaluate the physical and chemical stability of 1:1 Compound I Tris Salt (Form A) and amorphous free form, samples were stored under the conditions of 60° C. for 1 day and 25° C./60% RH or 40° C./75% RH for 1 week, respectively.
To evaluate the physical and chemical stability of 1:1 Compound II Citrate Salt (Form A), 1:1 Compound II Tris Salt (Form B) and freeform, samples were stored under the conditions of 60° C. for 1 day and 25° C./60% RH or 40° C./75% RH for 1 week, respectively.

[3] = Solid stability evaluation (II/II), HPLC in triplicate
Protocol: The chemical stability of 1:1 Compound II Citrate Salt (Form A) and 1:1 Compound II Tris Salt (Form B) was further evaluated at solid state, samples were stored under the ambient condition or 40° C./75% RH for 1 day and 3 days, respectively.

For `N#Cc1ccc(COc2cccc(C3=CCN(Cc4nc5ccc(C(=O)O)cc5n4C[C@@H]4CCO4)CC3)n2)c(F)c1` [Citrate salt Form A, (S)-2-((6-((4-cyano-2-fluorobenzyl)oxy)-3′,6′-dihydro-[2,4′-bipyridin]-1′(2′H)-yl)methyl)-1-(oxetan-2-ylmethyl)-1H-benzo[d]imidazole-6-carboxylic acid], the “S: solubility” value ([1]; FaSSIF, 1 hour) was 100 µg/mL, the “Purity (%), area percentage of API” value ([1]; FaSSIF, 1 hour) was 94.86% and the “S: solubility” value ([1]; FaSSIF, 4 hours) was 20 µg/mL. The “Purity (%), area percentage of API” value ([1]; FaSSIF, 4 hours) was 76.06%, the “S: solubility” value ([1]; FaSSIF, 24 hours) was 9 µg/mL and the “Purity (%), area percentage of API” value ([1]; FaSSIF, 24 hours) was 61.96%. For the same molecule, the “S: solubility” value ([1]; FeSSIF, 1 hour) was 200 µg/mL, the “Purity (%), area percentage of API” value ([1]; FeSSIF, 1 hour) was 98.94% and the “S: solubility” value ([1]; FeSSIF, 4 hours) was 300 µg/mL. The “Purity (%), area percentage of API” value ([1]; FeSSIF, 4 hours) was 95.25%, the “S: solubility” value ([1]; FeSSIF, 24 hours) was 90 µg/mL and the “Purity (%), area percentage of API” value ([1]; FeSSIF, 24 hours) was 79.88%. For the same molecule, the “S: solubility” value ([1]; H2O, 1 hour) was 20 µg/mL, the “Purity (%), area percentage of API” value ([1]; H2O, 1 hour) was 100.00% and the “S: solubility” value ([1]; H2O, 4 hours) was 20 µg/mL. For the same molecule, the “Purity (%), area percentage of API” value ([1]; H2O, 4 hours) was 91.26%, the “S: solubility” value ([1]; H2O, 24 hours) was 50 µg/mL and the “Purity (%), area percentage of API” value ([1]; H2O, 24 hours) was 86.05%. The “S: solubility” value ([1]; SGF, 1 hour) was 500 µg/mL, the “Purity (%), area percentage of API” value ([1]; SGF, 1 hour) was 96.79% and the “S: solubility” value ([1]; SGF, 4 hours) was 80 µg/mL. For the same molecule, the “Purity (%), area percentage of API” value ([1]; SGF, 4 hours) was 91.83%, the “S: solubility” value ([1]; SGF, 24 hours) was 60 µg/mL and the “Purity (%), area percentage of API” value ([1]; SGF, 24 hours) was 90.59%. The “FC: form change” value ([1]; FaSSIF, 1 hour) was “No”, the “FC: form change” value ([1]; FaSSIF, 4 hours) was “No” and the “FC: form change” value ([1]; FaSSIF, 24 hours) was “Yes”. For the same molecule, the “FC: form change” value ([1]; FeSSIF, 1 hour) was “No”, the “FC: form change” value ([1]; FeSSIF, 24 hours) was “Yes” and the “FC: form change” value ([1]; H2O, 1 hour) was “No”. For the same molecule, the “FC: form change” value ([1]; H2O, 4 hours) was “No”, the “FC: form change” value ([1]; H2O, 24 hours) was “No” and the “FC: form change” value ([1]; SGF, 1 hour) was “Yes”. The “FC: form change” value ([1]; SGF, 4 hours) was “Yes”, the “FC: form change” value ([1]; SGF, 24 hours) was “Yes” and the pH ([1]; FaSSIF, 1 hour) was 6.3. For the same molecule, the pH ([1]; FaSSIF, 4 hours) was 6.3, the pH ([1]; FaSSIF, 24 hours) was 6.0 and the pH ([1]; FeSSIF, 1 hour) was 5.0. It also gave a pH ([1]; FeSSIF, 4 hours) of 5.0, a pH ([1]; FeSSIF, 24 hours) of 4.9 and a pH ([1]; H2O, 1 hour) of 4.8. The pH ([1]; H2O, 4 hours) was 4.2, the pH ([1]; H2O, 24 hours) was 3.4 and the pH ([1]; SGF, 1 hour) was 1.9. The pH ([1]; SGF, 4 hours) was 1.9, the pH ([1]; SGF, 24 hours) was 1.9 and the “Solubility in SGF, FaSSIF and FeSSIF compared with freeform” value ([1]; within 1 hour) was “higher than that of freeform”. The Form change ([2]; 25° C./60% RH (open), 1 week) was “No”, the Observation ([2]; 25° C./60% RH (open), 1 week) was “White” and the “Purity (area %)” value ([2]; 25° C./60% RH (open), 1 week) was 97.58 area %. The Form change ([2]; 40° C./75% RH (open), 1 week) was “No”, the Observation ([2]; 40° C./75% RH (open), 1 week) was “White” and the “Purity (area %)” value ([2]; 40° C./75% RH (open), 1 week) was 97.14 area %. For the same molecule, the “Chemical stability compared with free form” value ([2]; 60° C. 1 day, 25° C./60% RH or 40° C./75% RH 1 week) was “better chemical stability”, the Form change ([2]; 60° C. (capped), 1 day) was “No” and the Observation ([2]; 60° C. (capped), 1 day) was “White”. The “Purity (area %)” value ([2]; 60° C. (capped), 1 day) was 97.50 area %, the Form change ([2]; Initial) was “No” and the Observation ([2]; Initial) was “White”. For the same molecule, the “Purity (area %)” value ([2]; Initial) was 97.73 area %, the “Ave. Purity (area %)” value ([3]; 40° C./75% RH (open), 1 day) was 97.8 area % and the “Ave. Purity (area %)” value ([3]; 40° C./75% RH (open), 3 days) was 97.9 area %. The “Ave. Purity (area %)” value ([3]; Ambient condition (open), 1 day) was 97.8 area %, the “Ave. Purity (area %)” value ([3]; Ambient condition (open), 3 days) was 97.8 area % and the “Ave. Purity (area %)” value ([3]; Initial) was 97.9 area %.
